How the values were obtained:
PSC27 cells = test: DNA damage response foci, colony formation, cell cycle arrest and SA-β-Gal in PSC27 cells; assay type: cell-based, human
Description: Experimental Treatment In Vitro • 100 nM docetaxel (DTX), 100 nM paclitaxel (PTX), 200 nM vincristine (VCR), 50 μg/ml bleomycin (BLEO), 1 μM mitoxantrone (MIT), or 10 Gy ^137CS ionizating radiation (γ-radiation at 743 rad/min, RAD) was added to the culture medium when PSC27 cells grown to 80% (PSC27-Pre) to produce cell damage. After drug treatment for 6 hours, the cells were simply washed by PBS for 3 times and kept in the culture medium for 7 to 10 days, followed by subsequent experiments. […] Immunofluorescence and Histochemical Analysis • Mouse monoclonal antibody anti-phospho-Histone H2A.X (Ser139) (clone JBW301, Millipore) or mouse monoclonal antibody anti-Phosphor-53BP1 (Cat #sc-135748, Santa Cruz), and secondary antibody Alexa Fluor® 488 (or 594)-conjugated F(ab′)2 were added sequentially to slides on which cells were fixed. Nuclei were counterstained with 2 μg/ml of 4′,6-diamidino-2-phenylindole (DAPI). The most representative image was selected from the 3 observation fields for data analysis and result presentation. FV1000 laser scanning confocal microscopy (Olympus) was used to obtain cellular confocal fluorescence images to determine the extent of DNA damage. • Antibody anti-TAK1 used for histological IHC staining in clinical prostate, non-small cell lung cancer patients and breast cancer patients, was purchased from Proteintech, idib.

SASP effectors = test: Genome-wide expression microarray of SASP effectors in PSC27 cells; assay type: cell-based, human; settings: bleomycin in combination with 5Z-7 vs bleomycin alone
Description: FIG. 34. After simultaneous treatment of PSC27 cells with bleomycin and/or 5Z-7, SB203580 (SB) and RAD001, total RNA was analyzed by microarray for expression-spectrum.
c. Experimental Treatment In Vitro • 100 nM docetaxel (DTX), 100 nM paclitaxel (PTX), 200 nM vincristine (VCR), 50 μg/ml bleomycin (BLEO), 1 μM mitoxantrone (MIT), or 10 Gy ^137CS ionizating radiation (γ-radiation at 743 rad/min, RAD) was added to the culture medium when PSC27 cells grown to 80% (PSC27-Pre) to produce cell damage. After drug treatment for 6 hours, the cells were simply washed by PBS for 3 times and kept in the culture medium for 7 to 10 days, followed by subsequent experiments. 2. Plasmid Preparation and Lentiviral Transfection • Full-length human IKKα and Flag were cloned as a fusion protein between the restriction sites BamHI and XbaI in the expression vector pCR3.1. Full-length human mTOR and GST were cloned as a fusion protein between a pair of NotI restriction sites in the expression vector pcDNA3. […] FV1000 laser scanning confocal microscopy (Olympus) was used to obtain cellular confocal fluorescence images to determine the extent of DNA damage. • Antibody anti-TAK1 used for histological IHC staining in clinical prostate, non-small cell lung cancer patients and breast cancer patients, was purchased from Proteintech, idib. […]

TAK1 = target: T1, TAK1 (Homo sapiens, UniProt O43318); test: IP, in vitro kinase assay and Western blot of TAK1 activation in damaged PSC27 stromal cells; assay type: cell-based
T1 construct: PSC27 cells were treated with bleomycin and cell lysates were subject to anti-p-TAK1-mediated IP precipitation; endogenous in cells; host or cells: PSC27 human prostate stromal cells
T1 sequence (O43318 1-606): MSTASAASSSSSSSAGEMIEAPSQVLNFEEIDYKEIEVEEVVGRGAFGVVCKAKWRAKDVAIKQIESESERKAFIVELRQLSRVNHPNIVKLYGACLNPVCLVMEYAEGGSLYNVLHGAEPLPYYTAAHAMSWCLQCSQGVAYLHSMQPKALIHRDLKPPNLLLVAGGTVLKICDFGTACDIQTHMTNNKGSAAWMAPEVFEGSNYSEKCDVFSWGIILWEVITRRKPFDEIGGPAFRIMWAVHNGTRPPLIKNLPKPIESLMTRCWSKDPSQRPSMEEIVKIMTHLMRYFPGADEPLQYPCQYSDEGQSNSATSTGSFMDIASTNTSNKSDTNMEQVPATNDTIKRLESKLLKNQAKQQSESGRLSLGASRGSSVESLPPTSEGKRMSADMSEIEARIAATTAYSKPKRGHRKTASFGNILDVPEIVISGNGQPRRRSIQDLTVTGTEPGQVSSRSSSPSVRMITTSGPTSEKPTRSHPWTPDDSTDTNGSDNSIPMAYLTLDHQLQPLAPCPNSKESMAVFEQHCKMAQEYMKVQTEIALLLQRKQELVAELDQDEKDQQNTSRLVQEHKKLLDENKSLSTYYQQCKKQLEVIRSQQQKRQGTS
Description: In the presence of the TAK1 inhibitor 5Z-7, PSC27 cells were treated with bleomycin and cell lysates were subject to anti-p-TAK1-mediated IP precipitation. IP products were analyzed by in vitro kinase assay, and MKK6 was used as TAK1 substrate. p38 phosphorylation was analyzed by Western blot with GAPDH as the loading control. In addition, IL-1α (20 ng/ml) was used to treat stromal cells and was further analyzed by similar IP and in vitro kinase assay.

## COc1cc(O)c2c(c1)/C=C/C[C@H](O)[C@H](O)C(=O)/C=C\C[C@H](C)OC2=O [5Z-7, 5z-7-oxozeaenol]
PSC27 cells; bleomycin and/or 5Z-7, Day 7
  colony forming ability of PSC27 cells: not associated with the inhibition of TAK1 activity
PSC27 cells; bleomycin-treated cells, presence or absence of inhibitor
  single-cell level of DDR foci: did not change significantly
SASP effectors
  expression of SASP effectors: significantly inhibited
TAK1; bleomycin-treated PSC27, 500 nM 5Z-7, IP and in vitro kinase assay with MKK6
  activation of TAK1 in damaged stromal cells: largely abolished
TAK1; p-TAK1 antibody IP after bleomycin
  physical interaction between TAK1 and TRAF6: abolished

From US11344601B2, “Tumor microenvironment-related target TAK1 and application thereof in inhibition of tumor” (Shanghai Institutes for Biological Sciences, Chinese …, priority 2017, dated 2022)
